pIC50: −log10 of the molar value. Activity calls are given as the source filed them. How the calls were made is not given here.
Tested on: 697B B-cell line, NF-kB luciferase reporter luminescence
Assay: NF-kB reporter inhibition in B cells, dose response, selectivity assay for T-cell antigen receptor NF-kB inhibitors, 697B cells, luminescence (AID 489033)

SMILES | IC50 | pIC50
CCOc1cccc(-c2nnc3n2N=C(c2cc(OC)ccc2OC)CS3)c1 | > 80 µM (inactive) | –
CCc1ccc(S(=O)(=O)/N=C2\C=C(Nc3ccc(O)cc3)C(=O)c3ccccc32)cc1 | – | 5.28
CNC[C@H](CC1CCCCC1)NC[C@H](Cc1ccccc1)NCCC12CC3CC(CC(C3)C1)C2 | – | 5.11
CCOC(=O)c1[nH]c2c(c1C)C(=O)CC(c1ccc(F)cc1)C2 (stereo unspecified) | > 80 µM (inactive) | –
Cc1ccc(/C=C/c2ccc(N(C)C)cc2)[n+](C)c1 | > 80 µM (inactive) | –
Cc1ccc(NS(=O)(=O)c2ccc(C(=O)NC3CCN(Cc4ccccc4)CC3)cc2)cc1 | 45.5 µM (inactive) | –
O=C(Nc1ccc(C(F)(F)F)cc1)c1cccn(Cc2ccc3c(c2)OC(F)(F)O3)c1=O | > 80 µM (inactive) | –
COc1cc([C@@H]2c3cc4c(cc3[C@@H](OC)[C@H]3COC(=O)[C@H]23)OCO4)cc(OC)c1O | > 80 µM (inactive) | –
N#Cc1ccc(-c2cccs2)nc1SCc1cccnc1 | > 80 µM (inactive) | –
COc1cc(-c2noc(C)c2-c2ccc(N(C)C)nc2)cc(OC)c1OC | > 80 µM (inactive) | –
CC[C@@]1(O)C(=O)OCc2c1cc1n(c2=O)Cc2cc3c(CN(C)C)c(O)ccc3nc2-1 | – | 6.02
COC(=O)c1ccccc1NC1=C/C(=N\S(=O)(=O)c2cccs2)c2ccccc2C1=O | – | 5.31
C#CC[N+](C)(C)CCCCCCCCCCCC | – | 5.59
Cc1ccc(Nc2nc(-c3c(C)nc4ncccn34)cs2)cc1 | > 80 µM (inactive) | –
COc1ccc(-[n+]2c(-c3ccccc3)cc(-c3ccc(C)cc3)cc2-c2ccccc2)cc1 | – | 5.08
CCCC(=O)NC(c1ccccc1Cl)c1ccc2cccnc2c1O (stereo unspecified) | > 80 µM (inactive) | –
Cc1ccc(C(=O)c2cc([N+](=O)[O-])ccc2N2CCCCC2)cc1C | > 80 µM (inactive) | –
CC(=O)c1c(C)[nH]c(C(=O)OCC(=O)Nc2ccc(C)cc2[N+](=O)[O-])c1C | – | 4.95
COC(=O)CCC(=O)NC(=S)Nc1sc(C)c(C)c1C(N)=O | > 80 µM (inactive) | –
CCc1ccc(N2C(=O)C(Cl)=C(Nc3ccc(C(=O)N4CCCC4)cc3)C2=O)cc1 | – | 5.64
CCOC(=O)C1CCN(S(=O)(=O)c2c(Cl)ccc3nonc23)CC1 | – | 5.97
Cc1c(C(=O)OCc2ccccc2)[nH]c2c1C(=O)CC(c1ccco1)C2 (stereo unspecified) | > 80 µM (inactive) | –
CC1=Nc2ccccc2/C1=C\c1sc(Nc2ccc(C)cc2)nc1O | 61 µM (inactive) | –
Cc1ccc2oc(/N=C(\N)NC(=O)C(C)(C)C)nc2c1 | – | 6.33

SMILES | IC50 | pIC50
C=CCn1c(SCc2c(C)noc2C)nc2ccccc2c1=O | > 80 µM (inactive) | –
CCOc1ccc(N(CC(=O)Nc2ccccc2C)S(=O)(=O)c2c(C)noc2C)cc1 | > 80 µM (inactive) | –
COc1cccc(OC)c1C1=NCC(=O)Nc2c1oc1ccc(Br)cc21 | 56.8 µM (inactive) | –
CC1(C)CC(N2CCN(C(c3ccccc3)c3ccccc3)CC2)=CC(=[N+]2CCCCC2)C1 | – | 5.79
CC1=C(C(=O)OCc2ccc3c(c2)OCO3)C(c2ccc(Cl)cc2)NC(=O)N1 (stereo unspecified) | – | 6.34
C[C@]12CC[C@@H]3c4cc(O)c(O)cc4CC[C@H]3[C@@H]1CC[C@@H]2O | – | 4.84
O=C(Nc1ccc(S(=O)(=O)N2CCOCC2)cc1)c1ccc(CN2CCc3ccccc3C2)cc1 | > 80 µM (inactive) | –
CCOc1ccc2c(c1)OC(c1ccc(C)cc1)(C(F)(F)F)NC2=O (stereo unspecified) | > 80 µM (inactive) | –
COC(=O)c1c(NC(=O)c2ccc([N+](=O)[O-])o2)sc2c1CCN(C(C)C)C2 | – | 4.82
COc1ccc(Cn2c(SCc3ccc(C)cc3)nc3cc(OC)c(OC)cc3c2=N)cc1Cl | – | 5.32
C[C@]12CC[C@H](O)C[C@H]1CC[C@@H]1[C@@H]2C[C@@H](O)[C@]2(C)[C@@H](C3=CC(=O)OC3)CC[C@]12O | – | 5.80
O=C(Nc1ccc(S(=O)(=O)N2CCCC2)cc1)c1ccc(CN2CCc3ccccc3C2)cc1 | > 80 µM (inactive) | –
COc1ccccc1CNS(=O)(=O)c1ccc(-c2cnc(C3CC3)o2)cc1 | > 80 µM (inactive) | –
O=S1(=O)C=C(Sc2nc3cc(Cl)ccc3o2)c2ccccc21 | – | 6.68
CCOCCOC(=O)c1[nH]c2c(c1C)C(=O)CC(c1cccs1)C2 (stereo unspecified) | > 80 µM (inactive) | –
COc1cccc(N2CCN(C(=O)c3cn(Cc4ccccc4)nc3-c3cccnc3)CC2)c1 | > 80 µM (inactive) | –
COc1ccc(OC)c2c1C(=O)C(Cl)=C(Cl)C2=O | – | 5.39
Cc1ccc(-n2ncc3c(N4CCN(c5ccccc5)CC4)ncnc32)c(C)c1 | – | 5.27
Cn1c(SC2=CS(=O)(=O)c3ccccc32)nc2ccccc21 | – | 5.45
COc1cc(/C=C2/SC(=Nc3ccc(O)cc3)NC2=O)ccc1O | 23.4 µM (inactive) | –
CCc1cc2c(=O)nc3n(c2s1)Cc1ccccc1/C3=C(/O)c1cccc([N+](=O)[O-])c1 | > 80 µM (inactive) | –
COc1cc(C(=O)Nc2ccc3c(c2)ncn3C)cc(OC)c1OC | > 80 µM (inactive) | –
O=C(Nc1ccc(S(=O)(=O)Nc2ccc(F)cc2)cc1)c1ccc(CN2CCOCC2)cc1 | > 80 µM (inactive) | –
C=CCNC(=S)N/N=C(\C)c1ccccn1 | – | 6.21

SMILES | IC50 | pIC50
CC(C)CC[n+]1ccccc1/C=C/c1ccc(N(C)C)cc1 | > 80 µM (inactive) | –
COc1ccc(C2=NOC(C(=O)NCc3cccs3)C2)cc1OC (stereo unspecified) | > 80 µM (inactive) | –
CCCCC(=O)NC(c1ccc(Cl)cc1)c1ccc2cccnc2c1O (stereo unspecified) | > 80 µM (inactive) | –
CC1CCCN(c2ncnc3c2cnn3-c2ccc(Cl)cc2)C1 (stereo unspecified) | – | > 6.80
CC(C)n1c(CN(C)Cc2ccccc2)nc2c1c(=O)n(C)c(=O)n2C | 43.7 µM (inactive) | –
CC1Cc2cc(-c3csc(NC(=O)Cc4cccs4)n3)ccc2N1S(C)(=O)=O (stereo unspecified) | – | 4.86
Cc1ccc(O)c(NC(=O)c2cc(-c3ccccc3)on2)c1 | > 80 µM (inactive) | –
COc1ccc([N+](=O)[O-])cc1Nc1c2ccccc2nc2ccccc12 | > 80 µM (inactive) | –
O=S(=O)(C/C(=C/CO)S(=O)(=O)c1ccccc1)c1ccccc1 | – | 6.55
CC(C)c1oc(=O)cc2c1[C@@H](O)[C@H]1OC(=O)[C@@]3(C)C[C@@H](O)[C@@H](O)[C@@]2(C)C13 (stereo partly specified) | – | 5.14
COc1ccc(/C=N/Nc2cc(C)nc3ccc(OC)cc23)c(OC)c1 | – | 5.28
CCOC(=O)c1[nH]c(C)c(C(=O)Nc2cc(Cl)ccc2C)c1C | > 80 µM (inactive) | –
O=C(Cc1ccc(-c2ccccc2)cc1)NCc1ccccc1 | > 80 µM (inactive) | –
COc1ccc(/C=N/NC(=O)COc2ccccc2-c2ccccc2)cc1 | 76.2 µM (inactive) | –
Cn1ncnc2c(=O)n(C)c(=O)nc1-2 | – | 5.55
COc1cc(Cn2c(-c3nonc3N)nc3ccccc32)ccc1C | > 80 µM (inactive) | –
Cc1ccc(Nc2nc(-c3c(C)nc4ccccn34)cs2)cc1 | > 80 µM (inactive) | –
CCn1c2ccccc2c2cc(NC(=O)c3cc(OC)cc(OC)c3)ccc21 | > 80 µM (inactive) | –
Cc1c(C(=O)N/N=C/c2c(O)ccc3ccccc23)nnn1-c1nonc1N | 34.7 µM (inactive) | –
COc1ccc(NS(=O)(=O)c2cc(-c3cnc(C4CC4)o3)ccc2C)cc1 | > 80 µM (inactive) | –
COc1cc(NS(C)(=O)=O)ccc1Nc1c2ccccc2nc2ccccc12 | – | 4.80
CCOc1ccccc1C(=O)Nc1ccc2nc(N3CCN(c4ncccn4)CC3)cc(C)c2c1 | – | 5.33
CCN(CC)c1ccc(NC(=O)c2cc(OC)cc(OC)c2)c(C)c1 | > 80 µM (inactive) | –
